Laboratory results from ChEMBL document CHEMBL1136483, “Synthesis and antiviral evaluation of 3-hydroxy-2-methylpyridin-4-one dideoxynucleoside derivatives” (Bioorg Med Chem Lett, 2003).

Columns and labels:
CCRF-CEM [1] = experiment: Compound was tested for anti-viral activity against HIV-1 in CEM cells; assay type: functional, cell-based; conditions: Homo sapiens
HEL [2] = experiment: Compound concentration required to reduce viability of HEL cells; assay type: functional; conditions: Homo sapiens
HEL [3] = experiment: Compound was tested for anti-viral activity against HSV-1TK neg in HEL cells; assay type: functional, cell-based; conditions: Homo sapiens
[4] = test system: Human herpesvirus 2 (Herpes simplex virus type 2); experiment: Compound was tested for anti-viral activity against HSV-2(G) in HEL cells
CCRF-CEM [5] = experiment: Compound concentration required to reduce viability of CEM cells; assay type: functional; conditions: Homo sapiens
HEL [6] = experiment: Compound was tested for anti-viral activity against HSV-1(KOS) in HEL cells; assay type: functional, cell-based; conditions: Homo sapiens
CCRF-CEM [7] = experiment: Compound was tested for anti-viral activity against HIV-2 in CEM cells; assay type: functional, cell-based; conditions: Homo sapiens

| Structure (SMILES) | EC50 (CCRF-CEM [1]) | CC50 (HEL [2]) | EC50 (HEL [3]) | EC50 [4] | CC50 (CCRF-CEM [5]) | EC50 (HEL [6]) | EC50 (CCRF-CEM [7]) |
| --- | --- | --- | --- | --- | --- | --- | --- |
| Cc1c(O)c(=O)ccn1[C@H]1CC[C@@H](CO)O1 | > 50 µM | > 900 µM | 500 µM | > 900 µM | 101 µM | 40 µM | > 50 µM |
| Cc1c(O)c(=O)ccn1[C@H]1CS[C@@H](CO)O1 (racemic) | > 80 µM | > 100 µM | 80 µM | 81 µM | 203 µM | 32 µM | > 80 µM |
| Cc1c(O)c(=O)ccn1[C@@H]1CC[C@@H](CO)O1 | > 50 µM | > 900 µM | 500 µM | 500 µM | > 50 µM | 177 µM | > 50 µM |
| Cc1c(O)c(=O)ccn1[C@@H]1CS[C@@H](CO)O1 (racemic) | > 80 µM | > 400 µM | 95 µM | 90 µM | 203 µM | 40 µM | > 80 µM |
| Nc1ccn(C[C@@H](CO)OCP(=O)(O)O)c(=O)n1 [CIDOFOVIR] | > 200 µM | > 350 µM | – | – | > 200 µM | 0.57 µM | > 200 µM |
| Nc1nc2c(ncn2COCCO)c(=O)[nH]1 [ACYCLOVIR] | > 200 µM | > 1700 µM | 88 µM | – | > 200 µM | 0.32 µM | > 200 µM |
| Nc1nc2c(ncn2COC(CO)CO)c(=O)[nH]1 [GANCICLOVIR] | > 200 µM | > 400 µM | – | 0.06 µM | > 200 µM | – | > 200 µM |
